In patent US11459323B2, “Monocyclic β-lactam compound for treating bacterial infection” (MEDSHINE DISCOVERY INC., priority 2018, dated 2022):
Converted amounts (≈) assume the structure as drawn.

Assays:
Assay in all cases: MIC on clinically isolated bacteria
Assay type in all cases: cell-based
[1] = tested on: Acinetobacter baumannii C251; conditions: Acinetobacter baumannii C251; read-out: Minimum Inhibitory Concentration (MIC)
Description: (§1) Twenty-five strains of clinically isolated Acinetobacter baumannii and twenty-seven strains of Pseudomonas aeruginosa were respectively selected and used to determine the minimum inhibitory concentration (MIC) of the compounds by micro-liquid dilution method according to the Institute of Clinical and Laboratory Standard (CLSI) requirements.

[2] = tested on: Acinetobacter baumannii C270; conditions: Acinetobacter baumannii C270; read-out: Minimum Inhibitory Concentration (MIC)
Description: as §1

[3] = tested on: Acinetobacter baumannii C312; conditions: Acinetobacter baumannii C312; read-out: Minimum Inhibitory Concentration (MIC)
Description: as §1

[4] = tested on: Acinetobacter baumannii C313; conditions: Acinetobacter baumannii C313; read-out: Minimum Inhibitory Concentration (MIC)
Description: as §1

[5] = tested on: Acinetobacter baumannii C315; conditions: Acinetobacter baumannii C315; read-out: Minimum Inhibitory Concentration (MIC)
Description: as §1

[6] = tested on: Acinetobacter baumannii C319; conditions: Acinetobacter baumannii C319; read-out: Minimum Inhibitory Concentration (MIC)
Description: as §1

[7] = tested on: Acinetobacter baumannii C328; conditions: Acinetobacter baumannii C328; read-out: Minimum Inhibitory Concentration (MIC)
Description: as §1

[8] = tested on: Acinetobacter baumannii C332; conditions: Acinetobacter baumannii C332; read-out: Minimum Inhibitory Concentration (MIC)
Description: as §1

[9] = tested on: Acinetobacter baumannii C333; conditions: Acinetobacter baumannii C333; read-out: Minimum Inhibitory Concentration (MIC)
Description: as §1

[10] = tested on: Acinetobacter baumannii C357; conditions: Acinetobacter baumannii C357; read-out: Minimum Inhibitory Concentration (MIC)
Description: as §1

[11] = tested on: Acinetobacter baumannii C361; conditions: Acinetobacter baumannii C361; read-out: Minimum Inhibitory Concentration (MIC)
Description: as §1

[12] = tested on: Acinetobacter baumannii C390; conditions: Acinetobacter baumannii C390; read-out: Minimum Inhibitory Concentration (MIC)
Description: as §1

[13] = tested on: Acinetobacter baumannii C394; conditions: Acinetobacter baumannii C394; read-out: Minimum Inhibitory Concentration (MIC)
Description: as §1

[14] = tested on: Acinetobacter baumannii C395; conditions: Acinetobacter baumannii C395; read-out: Minimum Inhibitory Concentration (MIC)
Description: as §1

[15] = tested on: Acinetobacter baumannii C401; conditions: Acinetobacter baumannii C401; read-out: Minimum Inhibitory Concentration (MIC)
Description: as §1

[16] = tested on: Acinetobacter baumannii C402; conditions: Acinetobacter baumannii C402; read-out: Minimum Inhibitory Concentration (MIC)
Description: as §1

[17] = tested on: Acinetobacter baumannii C403; conditions: Acinetobacter baumannii C403; read-out: Minimum Inhibitory Concentration (MIC)
Description: as §1

[18] = tested on: Acinetobacter baumannii C408; conditions: Acinetobacter baumannii C408; read-out: Minimum Inhibitory Concentration (MIC)
Description: as §1

[19] = tested on: Acinetobacter baumannii C427; conditions: Acinetobacter baumannii C427; read-out: Minimum Inhibitory Concentration (MIC)
Description: as §1

Aeruginosa ATCC27853 = conditions: Pseudomonas aeruginosa; Aeruginosa ATCC27853; read-out: MIC
Description: as §1

[20] = tested on: Pseudomonas aeruginosa C745; conditions: read-out: MIC
Description: as §1

[21] = tested on: Pseudomonas aeruginosa C754; conditions: read-out: MIC
Description: as §1

[22] = tested on: Pseudomonas aeruginosa C755; conditions: read-out: MIC
Description: as §1

[23] = tested on: Pseudomonas aeruginosa C761; conditions: read-out: MIC
Description: as §1

[24] = tested on: Pseudomonas aeruginosa C763; conditions: read-out: MIC
Description: as §1

[25] = tested on: Pseudomonas aeruginosa M4; conditions: read-out: MIC
Description: as §1

[26] = tested on: Pseudomonas aeruginosa W13; conditions: read-out: MIC
Description: as §1

[27] = tested on: Pseudomonas aeruginosa W19; conditions: read-out: MIC
Description: as §1

[28] = tested on: Pseudomonas aeruginosa W1; conditions: read-out: MIC
Description: as §1

[29] = tested on: Pseudomonas aeruginosa W20; conditions: read-out: MIC
Description: as §1

[30] = tested on: Pseudomonas aeruginosa W21; conditions: read-out: MIC
Description: as §1

[31] = tested on: Pseudomonas aeruginosa W24; conditions: read-out: MIC
Description: as §1

[32] = tested on: Pseudomonas aeruginosa W27; conditions: read-out: MIC
Description: as §1

[33] = tested on: Pseudomonas aeruginosa W28; conditions: read-out: MIC
Description: as §1

[34] = tested on: Pseudomonas aeruginosa W29; conditions: read-out: MIC
Description: as §1

[35] = tested on: Pseudomonas aeruginosa W32; conditions: read-out: MIC
Description: as §1

[36] = tested on: Pseudomonas aeruginosa W42; conditions: read-out: MIC
Description: as §1

[37] = tested on: Pseudomonas aeruginosa W46; conditions: read-out: MIC
Description: as §1

[38] = tested on: Pseudomonas aeruginosa W47; conditions: read-out: MIC
Description: as §1

[39] = tested on: Pseudomonas aeruginosa W4; conditions: read-out: MIC
Description: as §1

[40] = tested on: Pseudomonas aeruginosa W9; conditions: read-out: MIC
Description: as §1

CC1(C)[C@H](NC(=O)/C(=N\O[C@@H](COc2ccc3c(c2)CN(C(=N)N[C@@H]2CCCNC2)C3)C(=O)O)c2csc(N)n2)C(=O)N1OS(=O)(=O)O [Compound 41]
MIC [1]: 8 µg/mL (≈ 11.3 µM)
MIC [2]: 2 µg/mL (≈ 2.82 µM)
MIC [3]: 2 µg/mL (≈ 2.82 µM)
MIC [4]: 2 µg/mL (≈ 2.82 µM)
MIC [5]: 2 µg/mL (≈ 2.82 µM)
MIC [6]: 2 µg/mL (≈ 2.82 µM)
MIC [7]: 2 µg/mL (≈ 2.82 µM)
MIC [8]: 2 µg/mL (≈ 2.82 µM)
MIC [9]: 2 µg/mL (≈ 2.82 µM)
MIC [10]: 2 µg/mL (≈ 2.82 µM)
MIC [11]: 1 µg/mL (≈ 1.41 µM)
MIC [12]: 2 µg/mL (≈ 2.82 µM)
MIC [13]: 2 µg/mL (≈ 2.82 µM)
MIC [14]: 2 µg/mL (≈ 2.82 µM)
MIC [15]: 1 µg/mL (≈ 1.41 µM)
MIC [16]: 2 µg/mL (≈ 2.82 µM)
MIC [17]: 4 µg/mL (≈ 5.64 µM)
MIC [18]: 2 µg/mL (≈ 2.82 µM)
MIC [19]: 4 µg/mL (≈ 5.64 µM)
MIC (Aeruginosa ATCC27853): 0.5 µg/mL (≈ 0.704 µM)
MIC [20]: 4 µg/mL (≈ 5.64 µM)
MIC [21]: 0.5 µg/mL (≈ 0.704 µM)
MIC [22]: 0.5 µg/mL (≈ 0.704 µM)
MIC [23]: 1 µg/mL (≈ 1.41 µM)
MIC [24]: 4 µg/mL (≈ 5.64 µM)
MIC [25]: 0.5 µg/mL (≈ 0.704 µM)
MIC [26]: 0.5 µg/mL (≈ 0.704 µM)
MIC [27]: 1 µg/mL (≈ 1.41 µM)
MIC [28]: 2 µg/mL (≈ 2.82 µM)
MIC [29]: 4 µg/mL (≈ 5.64 µM)
MIC [30]: 0.5 µg/mL (≈ 0.704 µM)
MIC [31]: 2 µg/mL (≈ 2.82 µM)
MIC [32]: 4 µg/mL (≈ 5.64 µM)
MIC [33]: 4 µg/mL (≈ 5.64 µM)
MIC [34]: 1 µg/mL (≈ 1.41 µM)
MIC [35]: 4 µg/mL (≈ 5.64 µM)
MIC [36]: 0.5 µg/mL (≈ 0.704 µM)
MIC [37]: 2 µg/mL (≈ 2.82 µM)
MIC [38]: 2 µg/mL (≈ 2.82 µM)
MIC [39]: 0.5 µg/mL (≈ 0.704 µM)
MIC [40]: 4 µg/mL (≈ 5.64 µM)
